Assay: Solubility of ligand in the binding assay
Assay type: physicochemical
Details: binding assay buffer; read-out: concentration above which only partially soluble in the assay
Procedure: Next, the question of whether binding of ligand to His10-PGRMC1 (His10 disclosed as SEQ ID NO: 14) is saturable was examined. […] Ligand binding time was held constant while increasing the ligand concentration by half logs in each experiment. The ligand concentration spanned four orders of magnitude from lowest to highest. […] Cholesterol was only partially soluble in our assay at concentrations greater than 3 mM so testing saturation at higher concentrations was unable to be performed.

With `CC(C)CCC[C@@H](C)[C@H]1CC[C@H]2[C@@H]3CC=C4C[C@@H](O)CC[C@]4(C)[C@H]3CC[C@]12C` [Cholesterol, cholesterol] the solubility was > 3000 µM.

Reference: US8187821B2, “Compositions and methods for the modulation of PGRMC1” (University of Utah Research Foundation, priority 2008, dated 2012)
